# Reference: ChEMBL document CHEMBL1201862, “PubChem BioAssay data set” (2004)
# Calls of active or inactive are those of the source.
# How the values were obtained:
# Vero = experiment: cells; type: functional; conditions: Chlorocebus sabaeus
# cells [1] = type: functional
# [2] = viability of PTEN-deleted HCT116 cells – cell-based, HCT116 PTEN knockout, dose response (AID 1047); type: functional;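 also: HCT116 colon tumor cells with PTEN knocked out; cells exposed to compound for 60 hours before readout; potency for loss of cell viability measured by luminescence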
# [3] = viability of HCT116 lacking mutant beta-catenin – cell-based, human colon tumor, dose response (AID 1045); type: functional;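 also: HCT116 colon tumor cells with beta catenin knocked out; cells exposed to compound for 60 hours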
# Fatty acid synthase [4] = target: T1, Fatty acid synthase (Homo sapiens, UniProt P49327); experiment: inhibition of human FAS-TE enzyme activity – biochemical, kinetic fluorescence intensity, dose response (AID 624326); type: functional;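 also: rate of fluorescence rise from hydrolysis of a fluorogenic O-methyl fluorescein ester substrate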
# T1 sequence (P49327 whole entry): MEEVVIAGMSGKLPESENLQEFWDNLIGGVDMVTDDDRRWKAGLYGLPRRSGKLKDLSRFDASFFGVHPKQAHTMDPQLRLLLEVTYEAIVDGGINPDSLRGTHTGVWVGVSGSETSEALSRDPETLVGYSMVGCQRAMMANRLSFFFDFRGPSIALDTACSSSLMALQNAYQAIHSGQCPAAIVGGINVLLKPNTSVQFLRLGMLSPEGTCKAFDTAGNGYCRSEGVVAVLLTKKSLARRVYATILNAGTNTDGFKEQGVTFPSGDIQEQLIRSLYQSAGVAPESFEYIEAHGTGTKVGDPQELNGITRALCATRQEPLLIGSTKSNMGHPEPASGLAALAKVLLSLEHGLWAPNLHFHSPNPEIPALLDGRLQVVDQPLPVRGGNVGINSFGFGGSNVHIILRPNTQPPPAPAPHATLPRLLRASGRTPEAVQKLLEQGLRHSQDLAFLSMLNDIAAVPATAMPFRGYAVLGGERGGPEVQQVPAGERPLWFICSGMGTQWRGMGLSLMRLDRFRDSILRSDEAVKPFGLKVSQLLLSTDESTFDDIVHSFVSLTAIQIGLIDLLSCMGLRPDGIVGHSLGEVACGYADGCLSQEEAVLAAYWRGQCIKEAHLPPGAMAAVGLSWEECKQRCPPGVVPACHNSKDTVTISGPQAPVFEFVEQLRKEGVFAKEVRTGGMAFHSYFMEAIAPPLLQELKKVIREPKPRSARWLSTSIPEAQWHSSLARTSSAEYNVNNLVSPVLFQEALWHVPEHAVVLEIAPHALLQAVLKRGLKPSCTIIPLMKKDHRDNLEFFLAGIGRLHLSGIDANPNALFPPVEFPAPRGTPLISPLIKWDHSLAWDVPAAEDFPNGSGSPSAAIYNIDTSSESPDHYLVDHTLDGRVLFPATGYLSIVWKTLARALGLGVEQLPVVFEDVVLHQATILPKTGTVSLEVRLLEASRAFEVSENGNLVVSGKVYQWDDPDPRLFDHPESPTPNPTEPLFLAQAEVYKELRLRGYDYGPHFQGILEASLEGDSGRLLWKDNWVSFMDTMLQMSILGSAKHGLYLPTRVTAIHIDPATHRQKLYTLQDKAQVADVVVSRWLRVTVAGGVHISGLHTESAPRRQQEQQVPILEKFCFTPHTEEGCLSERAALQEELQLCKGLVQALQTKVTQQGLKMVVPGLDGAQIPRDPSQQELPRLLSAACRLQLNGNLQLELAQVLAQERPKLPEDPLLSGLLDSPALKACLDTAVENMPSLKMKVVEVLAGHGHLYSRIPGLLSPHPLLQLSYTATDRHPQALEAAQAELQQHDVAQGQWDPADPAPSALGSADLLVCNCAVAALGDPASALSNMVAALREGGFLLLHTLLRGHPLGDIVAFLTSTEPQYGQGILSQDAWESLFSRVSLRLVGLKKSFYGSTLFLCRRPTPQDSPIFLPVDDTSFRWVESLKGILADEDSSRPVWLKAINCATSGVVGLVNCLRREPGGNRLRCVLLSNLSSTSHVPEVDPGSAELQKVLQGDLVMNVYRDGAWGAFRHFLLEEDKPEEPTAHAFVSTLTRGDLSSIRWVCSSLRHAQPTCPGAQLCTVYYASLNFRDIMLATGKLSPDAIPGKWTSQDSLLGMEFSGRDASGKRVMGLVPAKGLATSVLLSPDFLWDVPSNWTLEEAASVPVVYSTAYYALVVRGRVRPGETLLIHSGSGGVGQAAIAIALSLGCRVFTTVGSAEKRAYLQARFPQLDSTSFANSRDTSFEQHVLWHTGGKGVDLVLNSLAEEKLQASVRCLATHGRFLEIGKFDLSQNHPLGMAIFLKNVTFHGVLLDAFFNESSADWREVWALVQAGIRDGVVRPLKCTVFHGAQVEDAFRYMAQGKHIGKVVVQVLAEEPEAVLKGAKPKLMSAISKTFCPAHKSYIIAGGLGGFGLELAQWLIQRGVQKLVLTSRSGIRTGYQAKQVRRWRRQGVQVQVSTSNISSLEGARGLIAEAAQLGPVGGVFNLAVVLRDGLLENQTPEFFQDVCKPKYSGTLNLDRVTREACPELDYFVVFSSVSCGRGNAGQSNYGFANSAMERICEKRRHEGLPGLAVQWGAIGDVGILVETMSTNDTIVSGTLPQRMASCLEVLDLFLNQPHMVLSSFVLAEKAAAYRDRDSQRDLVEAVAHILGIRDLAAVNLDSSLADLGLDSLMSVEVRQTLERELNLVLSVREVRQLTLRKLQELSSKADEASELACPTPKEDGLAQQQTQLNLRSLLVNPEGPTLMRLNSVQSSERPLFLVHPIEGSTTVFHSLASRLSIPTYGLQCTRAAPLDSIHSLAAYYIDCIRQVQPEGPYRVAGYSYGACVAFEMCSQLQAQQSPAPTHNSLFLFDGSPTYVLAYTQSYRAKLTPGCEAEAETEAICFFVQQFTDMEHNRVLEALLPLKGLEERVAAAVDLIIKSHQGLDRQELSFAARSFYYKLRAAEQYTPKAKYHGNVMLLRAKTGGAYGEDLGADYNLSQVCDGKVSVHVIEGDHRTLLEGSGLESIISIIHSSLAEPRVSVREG
# Fatty acid synthase [5] = target: T1, Fatty acid synthase; experiment: inhibition of human FAS-TE enzyme activity – biochemical, endpoint fluorescence intensity, uHTS hits, dose response (AID 624327); type: functional;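 also: fluorescence from hydrolysis of an O-methyl fluorescein acyl ester substrate by the enzyme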
# cells [6] = type: functional, cell-based
# cells [7] = type: functional, cell-based; remark: listed apart in the source
# [8] = system: Streptococcus sp. 'group A'; experiment: Streptococcus pyogenes SK(-)GAS viability under kanamycin – luminescence, BacTiterGlo, confirmation, counter-screen for streptokinase expression inhibitor project, dose response (AID 1900); type: functional, organism-based
# BJ [9] = experiment: BJ-TERT-LT-ST fibroblast viability loss – cell-based, RAS-independent, luminescence, dose response (AID 1935); type: functional; conditions: Homo sapiens;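 also: BJ fibroblasts immortalized with TERT plus LT and ST oncogenes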
# BJ [10] = experiment: cells; type: functional, cell-based; conditions: Homo sapiens
# Streptococcus = experiment: GAS UMAA2166 growth inhibition – luminescence, BacTiterGlo, counter-screen for streptokinase expression inhibitor project, dose response (AID 1915); type: functional, organism-based;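 also: potency for reduction of bacterial viability or growth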
# [11] = DRD fibroblast viability loss – cell-based, non-viral oncogenic, luminescence, dose response (AID 1934); type: functional; conditions: Homo sapiens
# BJ [12] = experiment: BJ-TERT fibroblast viability loss – cell-based, RAS-independent, luminescence, dose response (AID 1933); type: functional; conditions: Homo sapiens
# [13] = target: FAD-linked sulfhydryl oxidase ALR (Homo sapiens, UniProt P55789); experiment: ALR-catalysed DTT oxidation blockers – biochemical, H2O2 detection, luminescence, cherry-pick, dose response (AID 493248)
# Chain of FAD-linked sulfhydryl oxidase ALR (P55789 whole entry): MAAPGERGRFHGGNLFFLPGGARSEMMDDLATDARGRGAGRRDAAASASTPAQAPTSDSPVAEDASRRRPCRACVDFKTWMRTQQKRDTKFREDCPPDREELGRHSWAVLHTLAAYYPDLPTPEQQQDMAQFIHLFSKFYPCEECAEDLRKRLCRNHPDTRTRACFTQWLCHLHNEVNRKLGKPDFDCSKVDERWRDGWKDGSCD
# [14] = target: T2, Rac GTPase-activating protein 1 (Homo sapiens, UniProt Q9H0H5); experiment: blockers of MgcRacGAP-driven Rac1 GTP hydrolysis – biochemical, ADP Hunter fluorescence, primary and confirmatory, confirmation (AID 624330); type: functional
# T2 sequence (Q9H0H5 whole entry): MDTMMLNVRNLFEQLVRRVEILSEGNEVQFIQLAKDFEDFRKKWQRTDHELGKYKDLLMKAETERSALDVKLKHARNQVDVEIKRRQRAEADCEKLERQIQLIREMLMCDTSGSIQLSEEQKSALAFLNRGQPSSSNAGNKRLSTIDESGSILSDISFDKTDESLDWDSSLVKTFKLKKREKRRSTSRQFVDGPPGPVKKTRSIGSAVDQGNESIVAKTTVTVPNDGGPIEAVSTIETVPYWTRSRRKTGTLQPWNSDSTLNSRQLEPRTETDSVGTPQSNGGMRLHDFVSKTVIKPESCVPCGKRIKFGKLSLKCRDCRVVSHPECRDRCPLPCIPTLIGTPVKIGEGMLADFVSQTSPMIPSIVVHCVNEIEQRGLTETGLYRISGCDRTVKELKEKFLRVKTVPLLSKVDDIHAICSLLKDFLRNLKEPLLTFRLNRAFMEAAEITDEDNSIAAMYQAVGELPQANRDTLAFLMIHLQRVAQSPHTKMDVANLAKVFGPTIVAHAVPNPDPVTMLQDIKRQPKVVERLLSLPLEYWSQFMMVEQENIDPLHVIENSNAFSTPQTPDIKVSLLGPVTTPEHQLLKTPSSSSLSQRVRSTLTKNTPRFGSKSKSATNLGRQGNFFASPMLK
# [15] = target: T3, Replicative DNA helicase DnaB (Mycobacterium tuberculosis, UniProt P9WMR3); experiment: DnaB intein splicing inhibitors, dose response, biochemical, cell-free fluorescence (AID 449749); type: functional
# T3 sequence (P9WMR3 whole entry): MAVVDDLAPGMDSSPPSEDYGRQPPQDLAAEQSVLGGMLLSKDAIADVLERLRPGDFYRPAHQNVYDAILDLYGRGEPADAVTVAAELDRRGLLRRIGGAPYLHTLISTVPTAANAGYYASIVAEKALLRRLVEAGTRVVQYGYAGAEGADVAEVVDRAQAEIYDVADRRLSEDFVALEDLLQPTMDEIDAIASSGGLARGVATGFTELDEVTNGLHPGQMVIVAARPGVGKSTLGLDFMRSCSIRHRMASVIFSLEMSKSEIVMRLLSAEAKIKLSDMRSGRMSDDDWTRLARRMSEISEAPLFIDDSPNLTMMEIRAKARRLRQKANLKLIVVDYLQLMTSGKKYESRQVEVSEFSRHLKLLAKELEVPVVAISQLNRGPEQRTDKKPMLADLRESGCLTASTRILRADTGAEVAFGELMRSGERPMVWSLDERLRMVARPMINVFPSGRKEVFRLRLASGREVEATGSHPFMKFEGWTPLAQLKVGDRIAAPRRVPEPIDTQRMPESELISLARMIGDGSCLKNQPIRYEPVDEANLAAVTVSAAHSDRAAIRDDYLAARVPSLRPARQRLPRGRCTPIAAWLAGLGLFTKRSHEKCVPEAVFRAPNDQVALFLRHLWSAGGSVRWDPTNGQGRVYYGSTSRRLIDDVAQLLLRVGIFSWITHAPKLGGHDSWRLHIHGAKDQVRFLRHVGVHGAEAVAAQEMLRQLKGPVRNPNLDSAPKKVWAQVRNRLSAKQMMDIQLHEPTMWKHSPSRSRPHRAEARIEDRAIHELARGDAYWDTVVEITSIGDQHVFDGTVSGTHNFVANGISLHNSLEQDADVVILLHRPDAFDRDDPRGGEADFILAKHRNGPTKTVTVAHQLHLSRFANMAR
# Protein RecA = target: T4, Protein RecA (Mycobacterium tuberculosis, UniProt P9WHJ3); experiment: Fluorescence Cell-Free Homogeneous Dose Retest to Identify Inhibitors of RecA-Intein Splicing Activity. [Related pubchem assays (depositor defined):AID2097, AID2223, AID489010, AID492950]; type: functional
# T4 sequence (P9WHJ3 whole entry): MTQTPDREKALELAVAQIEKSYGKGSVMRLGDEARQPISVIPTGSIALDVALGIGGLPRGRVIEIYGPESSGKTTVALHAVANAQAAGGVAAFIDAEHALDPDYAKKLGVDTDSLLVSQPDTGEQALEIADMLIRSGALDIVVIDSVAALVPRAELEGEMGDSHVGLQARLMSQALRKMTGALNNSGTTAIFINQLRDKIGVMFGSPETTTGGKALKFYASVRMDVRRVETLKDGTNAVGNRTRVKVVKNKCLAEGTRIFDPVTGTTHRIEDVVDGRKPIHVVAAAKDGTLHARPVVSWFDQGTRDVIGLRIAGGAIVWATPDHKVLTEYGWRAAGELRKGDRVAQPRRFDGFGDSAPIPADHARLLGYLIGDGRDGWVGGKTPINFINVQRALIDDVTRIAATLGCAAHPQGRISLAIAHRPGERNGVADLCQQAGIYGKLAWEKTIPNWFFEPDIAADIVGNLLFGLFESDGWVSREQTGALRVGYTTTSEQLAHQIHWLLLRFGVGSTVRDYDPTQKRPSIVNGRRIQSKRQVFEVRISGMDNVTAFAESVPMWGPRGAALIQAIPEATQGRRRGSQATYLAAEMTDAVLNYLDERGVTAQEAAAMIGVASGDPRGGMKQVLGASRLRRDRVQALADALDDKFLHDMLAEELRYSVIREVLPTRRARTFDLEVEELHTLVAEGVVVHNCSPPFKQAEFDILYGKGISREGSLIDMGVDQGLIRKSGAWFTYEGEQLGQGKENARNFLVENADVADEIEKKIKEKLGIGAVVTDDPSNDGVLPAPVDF
# [16] = Luminescence Cell-Based Dose Retest to Confirm Inhibitors of Cancer Stem Cells. [Related pubchem assays (depositor defined):AID2717, AID2721]; type: functional; conditions: Homo sapiens
# Paired box protein Pax-8 = Paired box protein Pax-8 (Homo sapiens, UniProt Q06710); experiment: PAX8 transcriptional activity inhibition in RMG-I – RMG-I cells, luciferase, cherry-pick, dose response (AID 687027); type: functional, cell-based;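 also: luciferase reporter driven by Pax8 target thyroperoxidase promoter measured by SteadyGlo luminescence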
# Chain of Paired box protein Pax-8 (Q06710 whole entry): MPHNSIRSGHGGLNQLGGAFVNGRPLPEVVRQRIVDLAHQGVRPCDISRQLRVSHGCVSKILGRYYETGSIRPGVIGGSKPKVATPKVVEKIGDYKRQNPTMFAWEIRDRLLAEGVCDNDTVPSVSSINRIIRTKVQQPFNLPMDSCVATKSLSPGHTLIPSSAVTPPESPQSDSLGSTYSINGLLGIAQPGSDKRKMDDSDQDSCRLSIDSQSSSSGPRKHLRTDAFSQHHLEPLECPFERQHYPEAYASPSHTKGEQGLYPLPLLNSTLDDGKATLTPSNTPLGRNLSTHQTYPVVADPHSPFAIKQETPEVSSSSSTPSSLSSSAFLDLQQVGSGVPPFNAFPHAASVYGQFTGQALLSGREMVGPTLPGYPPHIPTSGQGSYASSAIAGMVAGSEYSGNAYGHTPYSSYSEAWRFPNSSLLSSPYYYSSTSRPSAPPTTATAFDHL
# [17] = viability of uninfected HEp-2 cells – cell-based, HTS, cytotoxicity control for RSV inhibitor project, dose response (AID 2410); type: functional; conditions: human respiratory syncytial virus
structure (smiles),measurement,setting,value
CN(Cc1cnn(-c2ccccc2)c1)C(=O)c1ccc(S(=O)(=O)NCc2ccco2)cc1,CC50,Vero,14.4 µM (active)
CCc1nonc1NC(=O)COc1ccc(Cl)c(C)c1,IC50,cells [1],17 µM (active)
Cc1cccc(NC(=O)COc2ccc(Br)cc2)n1,IC50,cells [1],23.4 µM (active)
Cc1noc(/C=C/c2ccco2)c1S(=O)(=O)N1CCC(C(=O)N2CCc3ccccc3C2)CC1,EC50,[2],24.8 µM (active)
same,EC50,[3],26.9 µM (active)
C[C@H](CO)N1C[C@H](C)[C@@H](CN(C)C(=O)Nc2ccccc2)Oc2c(NC(=O)Nc3ccc(C(F)(F)F)cc3)cccc2C1=O,IC50,Fatty acid synthase [4],2.08 µM (active)
same,IC50,Fatty acid synthase [5],2.24 µM (active)
COc1ccc(NC(=O)Nc2ccc(Br)cn2)cc1,EC50,cells [6],> 350 µM (not active)
same,EC50,cells [7],> 350 µM (not active)
Cc1ccc(-n2nc(C)c(/C=N/NC(=O)c3cccc([N+](=O)[O-])c3)c2O)cc1C,EC50,[8],2.02 µM (active)
same,EC50,BJ [9],16 µM (active)
same,EC50,BJ [10],37 µM (active)
same,EC50,Streptococcus,6.18 µM (active)
same,EC50,[11],10 µM (active)
same,EC50,BJ [12],9.53 µM (active)
CC(Cc1ccccc1)NC(=O)c1cc([N+](=O)[O-])ccc1Cl (configuration not stated),IC50,Fatty acid synthase [4],5.85 µM (active)
same,IC50,Fatty acid synthase [5],5.69 µM (active)
Cc1sc2nc(CN3CCCC3)nc(Cl)c2c1C,EC50,[2],16.2 µM (active)
same,EC50,[3],11.2 µM (active)
COc1ccc(C(CC(=O)Nc2ccccc2OC)n2cccc2)cc1 (configuration not stated),EC50,cells [6],2.27 µM (active)
same,EC50,cells [7],> 350 µM (not active)
O=[N+]([O-])c1cccc(CN2CCN(c3cccc4[nH]ccc34)CC2)c1,AC50,[13],2.06 µM (active)
same,IC50,[14],45.4 µM (active)
CCOC(CNCc1cc(C)c2[nH]c3ccccc3c2c1C)OCC,CC50,Vero,22.6 µM (active)
S=C(NCCc1ccccc1)N1Cc2cc(Br)ccc2-n2nncc2C1,IC50,Fatty acid synthase [4],7.04 µM (active)
same,IC50,Fatty acid synthase [5],12.1 µM (active)
Cc1ccc(C(=O)NC(=S)NNS(=O)(=O)c2ccc(C)cc2)cc1,EC50,cells [6],> 350 µM (not active)
same,EC50,cells [7],> 350 µM (not active)
same,AC50,[15],58.9 µM (active)
same,EC50,Protein RecA,146 µM (active)
Cc1nnc2sc(SCc3cccc(Cl)c3)nn2c1=O,AC50,[13],0.175 µM (active)
same,AC50,[16],34.2 µM (active)
CC(=O)Nc1ccc(S(=O)(=O)N2CN(c3ccc(C)cc3)c3nc4ccccc4nc32)cc1,CC50,Vero,> 25 µM (active)
Cc1cccc(OCCn2cccc2/C=C2/C(=O)NC(=O)N(Cc3ccco3)C2=O)c1,EC50,cells [6],> 350 µM (not active)
same,EC50,cells [7],> 350 µM (not active)
COc1cccc(/C=N/NC(=O)c2ccc([N+](=O)[O-])cc2Cl)c1O,EC50,cells [6],172 µM (active)
same,EC50,cells [7],19.1 µM (active)
CC(C)(C)N1C(=O)[C@H]2[C@@H](c3ccc(Br)cc3)N3C(=O)N(c4ccc(Br)cc4)C(=O)[C@@]3(Cc3ccccc3)[C@H]2C1=O,IC50,Fatty acid synthase [4],10.5 µM (active)
same,IC50,Fatty acid synthase [5],10.3 µM (active)
C[C@@H]1CN([C@H](C)CO)C(=O)c2cc(NC(=O)Nc3ccc(C(F)(F)F)cc3)ccc2O[C@@H](C)CCCCO[C@H]1CN(C)Cc1ccc(Cl)c(Cl)c1,AC50,Paired box protein Pax-8,6.74 µM (active)
O=C(Nc1nc2ccc([N+](=O)[O-])cc2s1)c1c(F)cccc1F,EC50,cells [6],31.2 µM (active)
same,EC50,cells [7],> 350 µM (not active)
O=[N+]([O-])c1cc(-c2csc(NCCc3nc4cc(C(F)(F)F)ccc4n3CCCO)n2)ccc1Cl,IC50,Fatty acid synthase [4],3.93 µM (active)
same,IC50,Fatty acid synthase [5],5.17 µM (active)
Oc1cccc2cccnc12 [OXYQUINOLINE],EC50,BJ [9],> 150 µM (not active)
same,EC50,BJ [10],125 µM (active)
same,EC50,[11],17.9 µM (active)
same,EC50,BJ [12],> 150 µM (not active)
CC1(C)CC(=O)CC(C2(O)C(=O)N(Cc3ccccc3)c3ccccc32)O1 (configuration not stated),EC50,[2],17.7 µM (active)
same,EC50,[3],17.4 µM (active)
CCOC(=O)COc1ccc2c(=O)cc(-c3ccccc3)oc2c1 [EFLOXATE],IC50,cells [1],< 0.1 µM (active)
CC(C)CCn1c(SCCc2ccccc2)nc2c1c(=O)[nH]c(=O)n2C,EC50,[2],30.9 µM (active)
same,EC50,[3],35.6 µM (active)
COc1cc(N(C(=O)Cc2cccs2)C(C(=O)NC2CCCCC2)c2ccc(C)cc2)ccc1-n1cnnn1 (configuration not stated),EC50,[2],8.44 µM (active)
same,EC50,[3],8.86 µM (active)
O=[N+]([O-])c1cc(-c2csc(NCCc3nc4cc(Cl)c(Cl)cc4n3CCCO)n2)ccc1Cl,IC50,Fatty acid synthase [4],2.55 µM (active)
same,IC50,Fatty acid synthase [5],2.49 µM (active)
COc1cccc(NC(=S)N(CCCN2CCOCC2)Cc2cn(C)c3ccccc23)c1,EC50,cells [6],> 350 µM (not active)
same,EC50,cells [7],> 350 µM (not active)
CCOC(=O)c1sc(Nc2cccc(Cl)c2)nc1C,CC50,[17],> 50 µM (active)
same,EC50,cells [6],19.5 µM (active)
same,EC50,cells [7],> 350 µM (not active)
COc1ccc(-c2csc3nc(-c4ccccc4F)oc(=O)c23)cc1,IC50,Fatty acid synthase [4],1.16 µM (active)
same,IC50,Fatty acid synthase [5],2.83 µM (active)
Cc1cccc(C)c1NC(=O)NCCCN1CCN(c2ccccc2)CC1,AC50,[13],89.4 µM (active)
O=C(CSc1nnc(SCc2cccc3ccccc23)s1)N=Nc1c(O)[nH]c2ccccc12,EC50,[2],13.6 µM (active)
same,EC50,[3],10.8 µM (active)
